System: ruminants
Assay: comparison of lactylates: effect on milk fat yield
Assay type: in vivo
Conditions: diet supplementation, 10 ruminants per group; putative results
Experimental: (§1) Two experiments were carried out to evaluate the efficacy of lactylate in stimulating intestinal absorptive capacity and improving fecal consistency, dry matter content and scores and milk fat yield. The first experiment was conducted with goats and the second with dairy cows. The focus of the first experiment was the absorptive capacity and fecal consistency and scores, while the 2nd experiment focused on the effect on milk fat yield. In the first experiment, a goat farm was used. The farm had issues with fecal consistency, having at least 30 goats per pen with low fecal consistency. Fecal consistency and scores per pen were recorded 2 times per week from the start of the experiment for a period of 3 months. The goats in the farm were supplemented with lactylates (in this case applied as ALOAPUR® powder as obtained from Purac/Corbion) (added to the compound feed) at the rate of 3.5 to 7 g per goat per day. The 2nd study focused on the effect on milk fat yield and was conducted at a dairy research farm. The herd (120 cows) was divided into 2 groups blocked on days in milk, milk yield and milk fat %. One group was supplemented with 50 g of lactylates per cow per day while the other group served as a control. The ration for both groups was similar and was balanced on energy, protein and minerals and vitamins. The experiment lasted for 9 week. Performance data was collected/recorded on weekly basis. […] Methane emission is determined as described in Example 1; SCC, BC and mastitis effects are determined as described in Example 2. Effect on fecal consistency and effect on milk yield is determined as described in Example 3. The different lactylates are stearoyl lactylate, lauroyl lactylate, myristoyl lactylate, cetyl lactylate, palmitoyl lactylate and oleic lactylate. As control, the same diet without lactylates is supplied.

Row | Molecule | Average milk fat yield increased relative to control
1 | CCCCCCCCCCCC(=O)OC(C)C(=O)O (stereo not drawn) [Lauroyl lactylate, lauroyl lactylate] | by >10%
2 | CCCCCCCCCCCCCC(=O)OC(C)C(=O)O (stereo not drawn) [Myristoyl lactylate, myristoyl lactylate] | by >10%
3 | CCCCCCCC/C=C\CCCCCCCC(=O)OC(C)C(=O)O (stereo not drawn) [Oleic lactylate, oleic lactylate] | by >10%
4 | CCCCCCCCCCCCCCCC(=O)OC(C)C(=O)O (stereo not drawn) [Palmitoyl lactylate, palmitoyl lactylate] | by >10%
5 | cetyl lactylate | by >10%

System: ruminants
Assay: comparison of lactylates: effect on SCC, BC and mastitis
Assay type: in vivo
Conditions: diet supplementation, 10 ruminants per group; putative results
Experimental: Two experiments were carried out to evaluate the efficacy of lactylates in stimulating udder health. The first experiment was conducted with goats and the second with dairy cows. In the first experiment, a goat farm was used. The farm had issues with udder health and had high levels of somatic cell count (SCC) and bacterial counts (BC) in milk delivered. Performance and udder health data were collected every 4 weeks from shortly before starting the experiment for a duration of 3 months. During the experiment all goats on the farm were offered a ration supplemented with lactylates (in this case applied as ALOAPUR® powder as obtained from Purac/Corbion) (added to the compound feed, 3.5 to 7 g per goat per day). During the 3-month study period, every 3 to 4 weeks, data on performance and udder health was collected. The 2nd study was conducted on 7 dairy farms. […] Lactylates were supplemented to the ration of the cows on those farms via the compound feed (25 to 40 g per cow per day). The study lasted for 3 months. Performance and udder health data were collected at the beginning and every 4 weeks of the study. […] Methane emission is determined as described in Example 1; SCC, BC and mastitis effects are determined as described in Example 2. Effect on fecal consistency and effect on milk yield is determined as described in Example 3. The different lactylates are stearoyl lactylate, lauroyl lactylate, myristoyl lactylate, cetyl lactylate, palmitoyl lactylate and oleic lactylate. As control, the same diet without lactylates is supplied.

Row | Molecule | BC in milk reduced relative to control | SCC in milk reduced relative to control | incidence of mastitis reduced relative to control
6 | CCCCCCCCCCCC(=O)OC(C)C(=O)O (stereo not drawn) [Lauroyl lactylate, lauroyl lactylate] | by >20%, | by >20%, | by >25%
7 | CCCCCCCCCCCCCC(=O)OC(C)C(=O)O (stereo not drawn) [Myristoyl lactylate, myristoyl lactylate] | by >20%, | by >20%, | by >25%
8 | CCCCCCCC/C=C\CCCCCCCC(=O)OC(C)C(=O)O (stereo not drawn) [Oleic lactylate, oleic lactylate] | by >20%, | by >20%, | by >25%
9 | CCCCCCCCCCCCCCCC(=O)OC(C)C(=O)O (stereo not drawn) [Palmitoyl lactylate, palmitoyl lactylate] | by >20%, | by >20%, | by >25%
10 | cetyl lactylate | by >20%, | by >20%, | by >25%

System: ruminants
Assay: comparison of lactylates: effect on methane emission
Assay type: in vivo
Conditions: diet supplementation, 10 ruminants per group; putative results
Experimental: The well documented in vitro gas production technique (batch culture) (Soliva et al., Letters in Applied Microbiology 2003, 37, 35-39) was used in this study. The rumen fluid used in this incubation was obtained before the morning feeding from 3 rumen fistulated dairy cows on a basal diet composed of 50% maize silage and 50% wilted grass silage (on DM basis), supplemented with some straw and soybean meal. In addition, a balanced compound feed was fed to fulfill the animals' requirements for milk production. The rumen fluid of the three animals was mixed and used to prepare the inoculum. Incubations were performed in sealed 125-mL flasks, in triplicate. The supplements comprising the lactylates (in this case applied as ALOAPUR® powder as obtained from Purac/Corbion) at the level of 1 mg per ml buffered rumen fluid (see below), as well as the simulated dairy cow ration were added to the incubation flasks. On the day of the incubation, the flasks were sealed and flushed with CO2. To each flask, 25 mL of CO2-saturated bicarbonate/phosphate buffered rumen fluid was added (buffer:rumen fluid 4:1, v:v) before the onset of the in vitro incubations at 39° C. in a shaking incubator (Edmund Bühler Gmbh, Hechingen, Germany). After 24 h incubation period, the flasks were removed from the incubator and put directly in an ice bath to stop the microbial activity. Total gas pressure was measured, and the gas phase was sampled for gas composition analysis. Afterwards, pH was measured, and samples were collected for volatile fatty acids (VFA) analysis and protozoa numbers counting. […] Methane emission is determined as described in Example 1; SCC, BC and mastitis effects are determined as described in Example 2. Effect on fecal consistency and effect on milk yield is determined as described in Example 3. The different lactylates are stearoyl lactylate, lauroyl lactylate, myristoyl lactylate, cetyl lactylate, palmitoyl lactylate and oleic lactylate. As control, the same diet without lactylates is supplied.

Row | Molecule | Methane emission reduction relative to control
11 | CCCCCCCCCCCC(=O)OC(C)C(=O)O (stereo not drawn) [Lauroyl lactylate, lauroyl lactylate] | by >90%
12 | CCCCCCCCCCCCCC(=O)OC(C)C(=O)O (stereo not drawn) [Myristoyl lactylate, myristoyl lactylate] | by >90%
13 | CCCCCCCC/C=C\CCCCCCCC(=O)OC(C)C(=O)O (stereo not drawn) [Oleic lactylate, oleic lactylate] | by >90%
14 | CCCCCCCCCCCCCCCC(=O)OC(C)C(=O)O (stereo not drawn) [Palmitoyl lactylate, palmitoyl lactylate] | by >90%
15 | cetyl lactylate | by >90%

System: ruminants
Assay: comparison of lactylates: effect on fecal consistency score
Assay type: in vivo
Conditions: diet supplementation, 10 ruminants per group; putative results
Experimental: as §1

Row | Molecule | Number of ruminants with low fecal consistency reduced relative to control
16 | CCCCCCCCCCCC(=O)OC(C)C(=O)O (stereo not drawn) [Lauroyl lactylate, lauroyl lactylate] | by >50%
17 | CCCCCCCCCCCCCC(=O)OC(C)C(=O)O (stereo not drawn) [Myristoyl lactylate, myristoyl lactylate] | by >50%
18 | CCCCCCCC/C=C\CCCCCCCC(=O)OC(C)C(=O)O (stereo not drawn) [Oleic lactylate, oleic lactylate] | by >50%
19 | CCCCCCCCCCCCCCCC(=O)OC(C)C(=O)O (stereo not drawn) [Palmitoyl lactylate, palmitoyl lactylate] | by >50%
20 | cetyl lactylate | by >50%

Source: patent publication US20240207214A1, “FATTY ACID LACTYLATES FOR USE IN TREATING RUMINANT ANIMALS” (FORFARMERS CORPORATE SERVICES B.V., priority 2021, published 2024)
